Measured values published in patent US5270182A, “Antibiotic compounds and their production” (Hoechst Aktiengesellschaft, priority 1991, dated 1993).
In brackets after ≈: the same amount, converted by molar mass.

What was measured:
Ent. faecalis D 65 = experiment: MIC, agar-dilution method in Mueller-Hinton agar; format: cell-based; conditions: Enterococcus faecalis, D65
Source text: (§1) Compound M901809 and its acid hydrolysis product M901809H are active against gram-positive bacteria.

Ent. faecalis 734 = experiment: MIC, agar-dilution method in Mueller-Hinton agar; format: cell-based; conditions: Enterococcus faecalis
Source text: as §1

Staph. aureus 209 P = experiment: MIC, agar-dilution method in Mueller-Hinton agar; format: cell-based; conditions: Staphylococcus aureus
Source text: as §1

Ent. faecalis 21777 = experiment: MIC, agar-dilution method in Mueller-Hinton agar; format: cell-based; conditions: Enterococcus faecalis
Source text: as §1

Ent. faecalis Eder = experiment: MIC, agar-dilution method in Mueller-Hinton agar; format: cell-based; conditions: Enterococcus faecalis
Source text: as §1

Ent. faecalis 782 = experiment: MIC, agar-dilution method in Mueller-Hinton agar; format: cell-based; conditions: Enterococcus faecalis
Source text: as §1

Ent. faecalis UD8b = experiment: MIC, agar-dilution method in Mueller-Hinton agar; format: cell-based; conditions: Enterococcus faecalis
Source text: as §1

Staph. aureus 3066 = experiment: MIC, agar-dilution method in Mueller-Hinton agar; format: cell-based; conditions: Staphylococcus aureus
Source text: as §1

Ent. faecalis 3903 = experiment: MIC, agar-dilution method in Mueller-Hinton agar; format: cell-based; conditions: Enterococcus faecalis
Source text: as §1

Ent. faecalis 26777 = experiment: MIC, agar-dilution method in Mueller-Hinton agar; format: cell-based; conditions: Enterococcus faecalis
Source text: as §1

Staph. aureus 20240 = experiment: MIC, agar-dilution method in Mueller-Hinton agar; format: cell-based; conditions: Staphylococcus aureus, lactam resistant
Source text: as §1

Solubility = format: physicochemical
Staph. epidermidis 825 = experiment: MIC, agar-dilution method in Mueller-Hinton agar; format: cell-based; conditions: Staphylococcus epidermidis, Teicoplanin resistant, methicillin resistant
Source text: as §1
(§2) c = Teicoplanin resistant
(§3) Strains 5 to 26 are methicillin resistant staphylococci.

Staph. epidermidis 823 = experiment: MIC, agar-dilution method in Mueller-Hinton agar; format: cell-based; conditions: Staphylococcus epidermidis, Teicoplanin resistant, methicillin resistant
Source text: as §1, §2, §3

gram-positive bacteria = experiment: activity against gram-positive bacteria; format: cell-based
Source text: as §1

Staph. aureus 20424 = experiment: MIC, agar-dilution method in Mueller-Hinton agar; format: cell-based; conditions: Staphylococcus aureus, Erythromycin resistant
Source text: as §1
a = Erythromycin resistant

Staph. aureus 722 = experiment: MIC, agar-dilution method in Mueller-Hinton agar; format: cell-based; conditions: Staphylococcus aureus, methicillin resistant
Source text: as §1, §3

Staph. epidermidis 607 = experiment: MIC, agar-dilution method in Mueller-Hinton agar; format: cell-based; conditions: Staphylococcus epidermidis, methicillin resistant
Source text: as §1, §3

Staph. epidermidis 109 = experiment: MIC, agar-dilution method in Mueller-Hinton agar; format: cell-based; conditions: Staphylococcus epidermidis, methicillin resistant
Source text: as §1, §3

Staph. aureus 690 = experiment: MIC, agar-dilution method in Mueller-Hinton agar; format: cell-based; conditions: Staphylococcus aureus, methicillin resistant
Source text: as §1, §3

Staph. aureus 011UC5 = experiment: MIC, agar-dilution method in Mueller-Hinton agar; format: cell-based; conditions: Staphylococcus aureus, methicillin resistant
Source text: as §1, §3

Staph. aureus 694 = experiment: MIC, agar-dilution method in Mueller-Hinton agar; format: cell-based; conditions: Staphylococcus aureus, methicillin resistant
Source text: as §1, §3

Staph. epidermidis 2 Tub = experiment: MIC, agar-dilution method in Mueller-Hinton agar; format: cell-based; conditions: Staphylococcus epidermidis, methicillin resistant
Source text: as §1, §3

Staph. epidermidis 178 = experiment: MIC, agar-dilution method in Mueller-Hinton agar; format: cell-based; conditions: Staphylococcus epidermidis, methicillin resistant
Source text: as §1, §3

Staph. haemolyticus 712 = experiment: MIC, agar-dilution method in Mueller-Hinton agar; format: cell-based; conditions: Staphylococcus haemolyticus
Source text: as §1, §3

Staph. haemolyticus 809 = experiment: MIC, agar-dilution method in Mueller-Hinton agar; format: cell-based; conditions: Staphylococcus haemolyticus
Source text: as §1, §3

Staph. aureus Co. 1 = experiment: MIC, agar-dilution method in Mueller-Hinton agar; format: cell-based; conditions: Staphylococcus aureus, methicillin resistant
Source text: as §1, §3

Staph. aureus E 88 = experiment: MIC, agar-dilution method in Mueller-Hinton agar; format: cell-based; conditions: Staphylococcus aureus, E88, methicillin resistant
Source text: as §1, §3

Staph. aureus 789 = experiment: MIC, agar-dilution method in Mueller-Hinton agar; format: cell-based; conditions: Staphylococcus aureus, methicillin resistant
Source text: as §1, §3

Staph. aureus 706 = experiment: MIC, agar-dilution method in Mueller-Hinton agar; format: cell-based; conditions: Staphylococcus aureus, methicillin resistant
Source text: as §1, §3

Staph. epidermidis 291 = experiment: MIC, agar-dilution method in Mueller-Hinton agar; format: cell-based; conditions: Staphylococcus epidermidis, methicillin resistant
Source text: as §1, §3

Staph. aureus 710 = experiment: MIC, agar-dilution method in Mueller-Hinton agar; format: cell-based; conditions: Staphylococcus aureus, methicillin resistant
Source text: as §1, §3

Staph. aureus 712 = experiment: MIC, agar-dilution method in Mueller-Hinton agar; format: cell-based; conditions: Staphylococcus aureus, methicillin resistant
Source text: as §1, §3

Staph. aureus 725 = experiment: MIC, agar-dilution method in Mueller-Hinton agar; format: cell-based; conditions: Staphylococcus aureus, methicillin resistant
Source text: as §1, §3

Staph. aureus E 121 = experiment: MIC, agar-dilution method in Mueller-Hinton agar; format: cell-based; conditions: Staphylococcus aureus, E121, methicillin resistant
Source text: as §1, §3

Staph. aureus C 31153 = experiment: MIC, agar-dilution method in Mueller-Hinton agar; format: cell-based; conditions: Staphylococcus aureus, C31153, methicillin resistant
Source text: as §1, §3

Ent. faecium van R1 = experiment: MIC, agar-dilution method in Mueller-Hinton agar; format: cell-based; conditions: Enterococcus faecium, VANR1
Source text: as §1, §2
d = Vancomycin resistant

staphylococci = experiment: treatment of experimental animals infected with staphylococci; format: in vivo
streptococci = experiment: treatment of experimental animals infected with streptococci; format: in vivo

SMILES: CCCC1Cc2cc3c(c(O)c2C(=O)O1)-c1c(c(OC)c2oc4c(OC5CC(O)C(OC6CC(O)C(OC7CC(OC)C(O)C(C)O7)C(C)O6)C(C)O5)ccc(O)c4c(=O)c2c1O)C(O)C3O (centres unmarked) [M901809]
- MIC (Ent. faecalis D 65): 1.6 mg/L (≈ 1.7 µM)
- MIC (Ent. faecalis 734): 0.4 mg/L (≈ 0.425 µM)
- MIC (Staph. aureus 209 P): 0.1 mg/L (≈ 0.106 µM)
- MIC (Ent. faecalis 21777): 0.4 mg/L (≈ 0.425 µM)
- MIC (Ent. faecalis Eder): 0.4 mg/L (≈ 0.425 µM)
- MIC (Ent. faecalis 782): 0.4 mg/L (≈ 0.425 µM)
- MIC (Ent. faecalis UD8b): 0.8 mg/L (≈ 0.85 µM)
- MIC (Staph. aureus 3066): 0.2 mg/L (≈ 0.213 µM)
- MIC (Ent. faecalis 3903): 0.4 mg/L (≈ 0.425 µM)
- MIC (Ent. faecalis 26777): 0.4 mg/L (≈ 0.425 µM)
- MIC (Staph. aureus 20240): 0.2 mg/L (≈ 0.213 µM)
- Solubility (Solubility; in CH2Cl2): Very soluble
- Solubility (Solubility; in CH3CN): Poor to moderate
- Solubility (Solubility; in CHCl3): Very soluble
- Solubility (Solubility; in DMSO): Very soluble
- Solubility (Solubility; in H2O): Insoluble
- Solubility (Solubility; in MeOH): Poor to moderate
- Solubility (Solubility; in ethyl acetate): Poor to moderate
- Solubility (Solubility; in hexane): Insoluble
- Solubility (Solubility; in petroleum ether (40-60° C.)): Insoluble
- MIC (Staph. epidermidis 825): 0.8 mg/L (≈ 0.85 µM)
- MIC (Staph. epidermidis 823): 0.4 mg/L (≈ 0.425 µM)
- activity against gram-positive bacteria (gram-positive bacteria): active
- MIC (Staph. aureus 20424): 0.2 mg/L (≈ 0.213 µM)
- MIC (Staph. aureus 722): 0.2 mg/L (≈ 0.213 µM)
- MIC (Staph. epidermidis 607): 0.4 mg/L (≈ 0.425 µM)
- MIC (Staph. epidermidis 109): 0.4 mg/L (≈ 0.425 µM)
- MIC (Staph. aureus 690): 0.2 mg/L (≈ 0.213 µM)
- MIC (Staph. aureus 011UC5): 0.1 mg/L (≈ 0.106 µM)
- MIC (Staph. aureus 694): 0.2 mg/L (≈ 0.213 µM)
- MIC (Staph. epidermidis 2 Tub): 0.2 mg/L (≈ 0.213 µM)
- MIC (Staph. epidermidis 178): 0.2 mg/L (≈ 0.213 µM)
- MIC (Staph. haemolyticus 712): 0.2 mg/L (≈ 0.213 µM)
- MIC (Staph. haemolyticus 809): 0.4 mg/L (≈ 0.425 µM)
- MIC (Staph. aureus Co. 1): 0.1 mg/L (≈ 0.106 µM)
- MIC (Staph. aureus E 88): 0.2 mg/L (≈ 0.213 µM)
- MIC (Staph. aureus 789): 0.1 mg/L (≈ 0.106 µM)
- MIC (Staph. aureus 706): 0.2 mg/L (≈ 0.213 µM)
- MIC (Staph. epidermidis 291): 0.2 mg/L (≈ 0.213 µM)
- MIC (Staph. aureus 710): 0.2 mg/L (≈ 0.213 µM)
- MIC (Staph. aureus 712): 0.2 mg/L (≈ 0.213 µM)
- MIC (Staph. aureus 725): 0.1 mg/L (≈ 0.106 µM)
- MIC (Staph. aureus E 121): 0.2 mg/L (≈ 0.213 µM)
- MIC (Staph. aureus C 31153): 0.1 mg/L (≈ 0.106 µM)
- MIC (Ent. faecium van R1): 1.6 mg/L (≈ 1.7 µM)
- activity in treatment of infected experimental animals (staphylococci): active
- activity in treatment of infected experimental animals (streptococci): active
